The results in this text go back to patent publication US8143408B2, “N-(8-heteroaryltetrahydronaphtalene-2yl) or N-(5-heteroarylchromane-3-yl) carboxamide derivatives for the treatment of pain” (AstraZeneca AB, priority 2007, dated 2012).

This experiment has as its target T1, Nav1.7 voltage-gated sodium channel (Homo sapiens, UniProt Q15858).
T1 construct: Gene(s) encoding the full-length protein of the voltage-gated sodium channel of interest are cloned and expressed; expressed in transfected cells
Put plainly: Whole-cell voltage clamp electrophysiology assay. The format is cell-based. The conditions noted are these: cells stably expressing the voltage-gated sodium channel of interest. The source says: Gene(s) encoding the full-length protein of the voltage-gated sodium channel of interest are cloned and expressed under a suitable promoter in a suitable cell line, as well known in the art. […] Suitable screening assays are as follows.
Electrophysiological studies can be performed using automated patch-clamp electrophysiology platforms, like IonWorks HT, IonWorks Quattro, PatchXpress, QPatch or any other suitable platform. […] Suitable extracellular and intracellular buffer for such experiments are applied according to the instructions given by the manufacturer of the automated patch-clamp platforms. Cells that express the voltage-gated sodium channel protein of interest are exposed to drugs through the pipetting system integrated in the platforms. A suitable voltage stimulus protocol is used to activate the voltage-gated sodium channel proteins of interest through depolarisation from a defined holding potential.
Electrophysiological studies can also be performed using the whole cell configuration of the standard patch clamp technique. In this assay, cells that express the voltage-gated sodium channel protein of interest are exposed to the drugs by conventional microperfusion systems and a suitable voltage stimulus protocol is used to activate the voltage-gated sodium channels.

Each structure is given as a SMILES string.

T1 sequence (Q15858 whole entry): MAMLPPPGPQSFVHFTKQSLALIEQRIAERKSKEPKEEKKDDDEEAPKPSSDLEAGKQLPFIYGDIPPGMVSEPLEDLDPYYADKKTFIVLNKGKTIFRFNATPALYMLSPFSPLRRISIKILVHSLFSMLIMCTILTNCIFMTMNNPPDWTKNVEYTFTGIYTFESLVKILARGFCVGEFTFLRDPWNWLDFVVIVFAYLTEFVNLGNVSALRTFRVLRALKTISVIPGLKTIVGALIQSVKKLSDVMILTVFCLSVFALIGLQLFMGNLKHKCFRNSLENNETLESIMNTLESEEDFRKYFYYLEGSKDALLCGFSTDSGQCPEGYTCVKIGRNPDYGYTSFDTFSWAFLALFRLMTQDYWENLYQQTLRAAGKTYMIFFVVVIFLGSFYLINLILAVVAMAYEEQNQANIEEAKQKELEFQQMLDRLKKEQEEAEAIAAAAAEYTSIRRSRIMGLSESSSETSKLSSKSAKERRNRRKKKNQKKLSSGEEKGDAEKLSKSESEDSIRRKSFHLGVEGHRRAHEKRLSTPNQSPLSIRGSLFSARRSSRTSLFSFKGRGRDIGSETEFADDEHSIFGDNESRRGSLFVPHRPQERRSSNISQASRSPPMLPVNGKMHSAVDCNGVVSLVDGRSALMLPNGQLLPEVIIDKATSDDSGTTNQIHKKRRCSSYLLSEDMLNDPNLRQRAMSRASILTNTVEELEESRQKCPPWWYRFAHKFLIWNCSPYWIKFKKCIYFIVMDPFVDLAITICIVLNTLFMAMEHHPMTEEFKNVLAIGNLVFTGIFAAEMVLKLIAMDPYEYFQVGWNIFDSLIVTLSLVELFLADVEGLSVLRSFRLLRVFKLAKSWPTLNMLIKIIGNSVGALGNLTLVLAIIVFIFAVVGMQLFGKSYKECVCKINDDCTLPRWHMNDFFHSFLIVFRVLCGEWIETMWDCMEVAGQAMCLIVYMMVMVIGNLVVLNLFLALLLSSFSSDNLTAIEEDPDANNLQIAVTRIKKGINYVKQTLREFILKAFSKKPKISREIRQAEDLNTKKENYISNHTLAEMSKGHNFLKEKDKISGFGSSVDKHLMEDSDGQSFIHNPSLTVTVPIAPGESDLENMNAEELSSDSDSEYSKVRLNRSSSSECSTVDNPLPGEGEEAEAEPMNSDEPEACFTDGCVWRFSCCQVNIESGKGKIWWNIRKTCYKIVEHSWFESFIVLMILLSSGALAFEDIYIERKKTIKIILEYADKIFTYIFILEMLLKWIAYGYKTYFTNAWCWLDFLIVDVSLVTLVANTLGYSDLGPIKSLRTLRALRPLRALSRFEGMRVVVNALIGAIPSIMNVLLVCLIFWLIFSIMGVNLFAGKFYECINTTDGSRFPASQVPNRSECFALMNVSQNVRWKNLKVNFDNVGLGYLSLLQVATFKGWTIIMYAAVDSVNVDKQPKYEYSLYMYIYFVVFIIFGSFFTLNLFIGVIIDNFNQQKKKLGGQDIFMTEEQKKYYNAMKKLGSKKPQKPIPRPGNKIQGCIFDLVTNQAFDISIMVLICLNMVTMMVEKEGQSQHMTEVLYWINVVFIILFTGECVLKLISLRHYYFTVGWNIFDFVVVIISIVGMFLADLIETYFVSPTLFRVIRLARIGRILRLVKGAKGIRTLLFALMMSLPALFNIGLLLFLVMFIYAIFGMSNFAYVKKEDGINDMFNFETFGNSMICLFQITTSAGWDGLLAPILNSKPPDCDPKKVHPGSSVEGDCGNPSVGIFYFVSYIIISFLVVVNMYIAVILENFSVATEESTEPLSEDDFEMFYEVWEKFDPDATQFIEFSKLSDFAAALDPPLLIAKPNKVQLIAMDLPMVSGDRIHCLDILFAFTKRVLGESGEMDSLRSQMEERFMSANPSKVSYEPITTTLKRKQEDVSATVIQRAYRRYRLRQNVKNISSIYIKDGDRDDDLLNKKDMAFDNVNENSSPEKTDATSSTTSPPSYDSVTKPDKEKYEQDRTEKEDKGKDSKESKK

A word on the IC50: it is the midpoint of a concentration-inhibition curve. A lower IC50 goes with greater potency in that assay. As for `O=C(N[C@@H]1COc2cccc(-c3ccncc3)c2C1)c1ccc(OC(F)(F)F)cc1` [Example 1, N-[(3S)-5-Pyridin-4-yl-3,4-dihydro-2H-chromen-3-yl]-4-(trifluoromethoxy)-benzamide], the IC50 is 398 nM.
In turn, `CCCCOc1ccc(C(=O)N[C@@H]2COc3cccc(-c4ccncc4)c3C2)cc1` [Example 2, 4-Butoxy-N-[(3S)-5-pyridin-4-yl-3,4-dihydro-2H-chromen-3-yl]benzamide] showed a half-inhibitory concentration (IC50) of 126 nM.
The compound `O=C(N[C@@H]1CCc2cccc(-c3ccncc3)c2C1)c1ccc(OS(=O)(=O)C(F)(F)F)cc1` [Example 3, 4-{[(2R)-8-Pyridin-4-yl-1,2,3,4-tetrahydronaphthalen-2-yl]carbamoyl}phenyl trifluoromethanesulfonate] gave an IC50 of 251 nM. Against the preceding compound, the IC50 is about 2-fold higher.
Compound `O=C(N[C@@H]1COc2cccc(-c3ccccn3)c2C1)c1ccc(OC(F)(F)F)cc1` [Example 5, N-[(3S)-5-Pyridin-2-yl-3,4-dihydro-2H-chromen-3-yl]-4-(trifluoromethoxy)-benzamide] showed an IC50 of 1580 nM.
With `Cn1cc(-c2cccc3c2C[C@H](NC(=O)c2ccc(OC(F)(F)F)cc2)CC3)cn1` [Example 6, N-[(2R)-8-(1-Methyl-1H-pyrazol-4-yl)-1,2,3,4-tetrahydronaphthalen-2-yl]-4-(trifluoromethoxy)-benzamide], the midpoint of inhibition, the IC50, lay at 1000 nM.
The compound `Cn1cc(-c2cccc3c2C[C@H](NC(=O)c2ccc(OS(=O)(=O)C(F)(F)F)cc2)CC3)cn1` [Example 7, 4-{[(2R)-8-(1-Methyl-1H-pyrazol-4-yl)-1,2,3,4-tetrahydronaphthalen-2-yl]carbamoyl}phenyl trifluoromethanesulfonate] had an IC50 of 200 nM. This IC50 lies about 5-fold lower than the previous one.
For `Cc1nn(-c2ccccc2)nc1C(=O)N[C@@H]1CCc2cccc(-c3cnn(C)c3)c2C1` [Example 8, 5-Methyl-N-[(2R)-8-(1-methyl-1H-pyrazol-4-yl)-1,2,3,4-tetrahydronaphthalen-2-yl]-2-phenyl-2H-1,2,3-triazole-4-carboxamide] the value was 1580 nM; for `Cc1n[nH]c(C)c1-c1cccc2c1C[C@H](NC(=O)c1ccc(OC(F)(F)F)cc1)CC2` [Example 9, N-[(2R)-8-(3,5-Dimethyl-1H-pyrazol-4-yl)-1,2,3,4-tetrahydronaphthalen-2-yl]-4-(trifluoromethoxy)-benzamide], 6310 nM; for `Cc1noc(C)c1-c1cccc2c1C[C@H](NC(=O)c1ccc(OC(F)(F)F)cc1)CC2` [Example 10, N-[(2R)-8-(3,5-Dimethylisoxazol-4-yl)-1,2,3,4-tetrahydronaphthalen-2-yl]-4-(trifluoromethoxy)-benzamide], 3980 nM.
`Cc1noc(C)c1-c1cccc2c1C[C@H](NC(=O)c1ccc(OS(=O)(=O)C(F)(F)F)cc1)CC2` [Example 11, 4-{[(2R)-8-(3,5-Dimethylisoxazol-4-yl)-1,2,3,4-tetrahydronaphthalen-2-yl]carbamoyl}phenyl trifluoromethanesulfonate] showed an IC50 of 631 nM. Against the preceding compound, the IC50 is about 6.3-fold lower.
For the compound `O=C(N[C@@H]1CCc2cccc(-c3ccncc3)c2C1)c1ccc(OCC(F)(F)F)nc1` [Example 12, N-[(2R)-8-pyridin-4-yl-1,2,3,4-tetrahydronaphthalen-2-yl]-6-(2,2,2-trifluoroethoxy)nicotinamide], the IC50 is 63.1 nM.
As for `O=C(N[C@@H]1CCc2cccc(-c3ccncc3)c2C1)c1ccc(OCCC(F)(F)F)nc1` [Example 13, N-[(2R)-8-pyridin-4-yl-1,2,3,4-tetrahydronaphthalen-2-yl]-6-(3,3,3-trifluoropropoxy)nicotinamide], the IC50 was 39.8 nM.
Next, `CC(C)Oc1ccc(C(=O)N[C@@H]2CCc3cccc(-c4ccncc4)c3C2)cn1` [Example 14, 6-isopropoxy-N-[(2R)-8-pyridin-4-yl-1,2,3,4-tetrahydronaphthalen-2-yl]nicotin-amide]: 251 nM; `O=C(N[C@@H]1CCc2cccc(-c3ccncc3)c2C1)c1ccc(OC2CCCC2)nc1` [Example 15, 6-(cyclopentyloxy)-N-[(2R)-8-pyridin-4-yl-1,2,3,4-tetrahydronaphthalen-2-yl]nicotin-amide]: 25.1 nM.
`COc1ccc(C(=O)N[C@@H]2CCc3cccc(-c4ccncc4)c3C2)c(OC)c1` [Example 16, 2,4-dimethoxy-N-[(2R)-8-pyridin-4-yl-1,2,3,4-tetrahydronaphthalen-2-yl]-benzamide] showed an IC50 of 2000 nM. This IC50 lies about 80-fold higher than the previous one.
With `Cc1nn(-c2ccccc2)nc1C(=O)N[C@@H]1CCc2cccc(-c3ccncc3)c2C1` [Example 17, 5-methyl-2-phenyl-N-[(2R)-8-pyridin-4-yl-1,2,3,4-tetrahydronaphthalen-2-yl]-2H-1,2,3-triazole-4-carboxamide], the IC50 is 3980 nM.
`O=C(N[C@@H]1COc2cccc(-c3ccncc3)c2C1)c1ccc(OCC(F)(F)F)nc1` [Example 18, N-[(3S)-5-pyridin-4-yl-3,4-dihydro-2H-chromen-3-yl]-6-(2,2,2-trifluoroethoxy)nicotinamide] had an IC50 of 100 nM.
For `O=C(N[C@@H]1COc2cccc(-c3ccncc3)c2C1)c1ccc(OCCC(F)(F)F)nc1` [Example 19, N-[(3S)-5-pyridin-4-yl-3,4-dihydro-2H-chromen-3-yl]-6-(3,3,3-trifluoropropoxy)nicotin-amide] the value was 79.4 nM; for `CC(C)Oc1ccc(C(=O)N[C@@H]2COc3cccc(-c4ccncc4)c3C2)cn1` [Example 20, 6-isopropoxy-N-[(3S)-5-pyridin-4-yl-3,4-dihydro-2H-chromen-3-yl]nicotin-amide], 158 nM.
Next, `O=C(N[C@@H]1COc2cccc(-c3ccncc3)c2C1)c1ccc(OC2CCCC2)nc1` [Example 21, 6-(cyclopentyloxy)-N-[(3S)-5-pyridin-4-yl-3,4-dihydro-2H-chromen-3-yl]nicotin-amide]: 63.1 nM; `COc1ccc(C(=O)N[C@@H]2COc3cccc(-c4ccncc4)c3C2)c(OC)c1` [Example 22, 2,4-dimethoxy-N-[(3S)-5-pyridin-4-yl-3,4-dihydro-2H-chromen-3-yl]benzamide]: 6310 nM.
For `Cc1nn(-c2ccccc2)nc1C(=O)N[C@@H]1COc2cccc(-c3ccncc3)c2C1` [Example 23, 5-methyl-2-phenyl-N-[(3S)-5-pyridin-4-yl-3,4-dihydro-2H-chromen-3-yl]-2H-1,2,3-triazole-4-carboxamide] the value was 1260 nM; for `CC(C)COc1ccc(C(=O)N[C@@H]2COc3cccc(-c4ccncc4)c3C2)cn1` [Example 24, 6-isobutoxy-N-[(3S)-5-pyridin-4-yl-3,4-dihydro-2H-chromen-3-yl]nicotin-amide], 126 nM; for `CCOc1ccc(C(=O)N[C@@H]2COc3cccc(-c4ccncc4)c3C2)cn1` [Example 25, 6-ethoxy-N-[(3S)-5-pyridin-4-yl-3,4-dihydro-2H-chromen-3-yl]nicotin-amide], 2000 nM.
`O=C(N[C@@H]1COc2cccc(-c3ccncc3)c2C1)c1ccc(OCC(F)F)nc1` [Example 26, 6-(2,2-difluoroethoxy)-N-[(3S)-5-pyridin-4-yl-3,4-dihydro-2H-chromen-3-yl]nicotin-amide] showed an IC50 of 631 nM.
Compound `O=C(N[C@@H]1COc2cccc(-c3ccncc3)c2C1)c1ccc(OC(CF)CF)nc1` [Example 27, 6-[2-fluoro-1-(fluoromethyl)ethoxy]-N-[(3S)-5-pyridin-4-yl-3,4-dihydro-2H-chromen-3-yl]nicotin-amide] gave an IC50 of 631 nM.
Next, `O=C(N[C@@H]1COc2cccc(-c3ccncc3)c2C1)c1cnc(OC2CCCC2)nc1` [Example 28, 2-(cyclopentyloxy)-N-[(3S)-5-pyridin-4-yl-3,4-dihydro-2H-chromen-3-yl]Pyrimidine-5-carboxamide]: 100 nM; `O=C(N[C@@H]1COc2cccc(-c3ccncc3)c2C1)c1ccc(OC2CCC2)nc1` [Example 29, 6-(cyclobutyloxy)-N-[(3S)-5-pyridin-4-yl-3,4-dihydro-2H-chromen-3-yl]nicotin-amide]: 158 nM; `O=C(N[C@@H]1COc2cccc(-c3ccncc3)c2C1)c1ccc(OCC2CC2)nc1` [Example 30, 6-(cyclopropylmethoxy)-N-[(3S)-5-pyridin-4-yl-3,4-dihydro-2H-chromen-3-yl]nicotin-amide]: 200 nM.
The compound `Cc1noc(C)c1-c1cccc2c1C[C@H](NC(=O)c1ccc(OC(C)C)nc1)CC2` [Example 31, N-[(2R)-8-(3,5-dimethylisoxazol-4-yl)-1,2,3,4-tetrahydronaphthalen-2-yl]-6-isopropoxy-nicotinamide] had an IC50 of 2510 nM.
In the case of `Cc1noc(C)c1-c1cccc2c1C[C@H](NC(=O)c1cnc(OC3CCCC3)nc1)CC2` [Example 33, 2-(cyclopentyloxy)-N-[(2R)-8-(3,5-dimethylisoxazol-4-yl)-1,2,3,4-tetrahydronaphthalen-2-yl]pyrimidine-5-carboxamide], the IC50 was 316 nM.
With `CCCCS(=O)(=O)c1ccc(C(=O)N[C@@H]2COc3cccc(-c4ccncc4)c3C2)cn1` [Example 34, 6-(butylsulfonyl)-N-[(3S)-5-pyridin-4-yl-3,4-dihydro-2H-chromen-3-yl]nicotinamide], 631 nM corresponded to half-maximal inhibition (IC50).
In turn, `O=C(N[C@@H]1COc2cccc(-c3ccncc3)c2C1)c1ccc(Cl)nc1` [Example 35, 6-chloro-N-[(3S)-5-pyridin-4-yl-3,4-dihydro-2H-chromen-3-yl]nicotinamide] gave an IC50 of 631 nM.
For `CC(C)Oc1ncc(C(=O)N[C@@H]2COc3cccc(-c4ccncc4)c3C2)cn1` [Example 36, 2-isopropoxy-N-[(3S)-5-pyridin-4-yl-3,4-dihydro-2H-chromen-3-yl]pyrimidine-5-carboxamide] the value was 1260 nM.
